Patent publication US11717556B2, “Stemness-suppressing composition comprising OCT4 function-inhibiting peptide” (NATIONAL CANCER CENTER, priority 2018, dated 2023)
Where no end group is shown, it is not given here.

Assays:
[1] = system: OCT4 phosphorylation in NCCIT cell line; test: Western blotting of OCT4 phosphorylation in NCCIT cell line transformed with peptide vectors; format: cell-based, human; settings: vector-expressed peptide, cultured 36 to 48 hours, western blotting quantified with ImageJ (FIG. 16)
Text: In order to confirm the link between the phosphorylation of an octamer-binding transcription factor 4 (OCT4) protein and stemness, first, a cell line expressing OCT4 substituted with 236D as an OCT4 S236 phosphorylation mimetic mutant was constructed. For construction of cells, a lentivirus expressing short hairpin RNA ([…], SEQ ID NO: 1) and a puromycin resistance gene in a doxycycline-dependent manner was constructed, and primarily, NCCIT(ATCC® CRL-2073™) and NTERA-2 (ATCC® CRL-1973™), which are cancer stem cell lines, were transfected with the lentivirus. Then, a plasmid recombinant for expressing OCT4 wild type and blasticidine resistance genes, or OCT4 substituted with 236D which is a phosphorylation mimetic of OCT4 and blasticidine resistance genes in a pCAG-Flag-B/S vector was secondarily transfected into the transfected cell line using Lipofectamine 3000 (Thermo Fisher). […]
After an NCCIT cell line was transformed by inserting the vector constructed by the method in Example 5 into the NCCIT cell line using Lipofectamine 3000, and then cultured for 36 hours to 48 hours, western blotting was performed in the same manner as in Example 2.1. The quantification of western blotting was analyzed using ImageJ. […]

[2] = system: PP1 protein; test: Fluorescence polarization binding of FITC-bound peptides to purified PP1 protein
Experimental: Peptides in which FITC was bound to Helix-1, Helix-2, and Helix-3 in Example 4 were synthesized.
The peptides were uniformly aliquoted at a final concentration of 20 nM into a fluorescence polarization reaction buffer solution (10 mM HEPES pH7.5, 50 mM NaCl, 1 mM DTT, 1 mM EDTA, and 0.0025% Tween 20), a purified PP1 protein was added thereto, and then the resulting mixture was reacted for 30 minutes, and the results of measuring fluorescence polarization using TECAN Infinite F200 Pro are illustrated in FIG. 19.
The binding powers of Helix 3-1 (SEQ ID NO: 14), Helix 3-2 (SEQ ID NO: 15), Helix 3-3 (SEQ ID NO: 13), and Helix 3 were compared by narrowing the sequence involved in binding to PP1 in the Helix-3 sequence (SEQ ID NO: 11) consisting of 19 amino acids.

[3] = system: OCT4 S236 phosphorylation in NCCIT and NTERA-2 cell lines; test: Okadaic acid (PP1 inhibitor) treatment, western blotting and immunofluorescence staining of OCT4 S236 phosphorylation; format: cell-based, human; settings: NCCIT and NTERA-2 treated with okadaic acid; western blotting and immunofluorescence (FIGS. 10, 11)
[4] = system: OCT4 S236 phosphorylation in cell lines; test: Immunofluorescence staining of OCT4 phosphorylation after cell permeable peptide treatment; format: cell-based; settings: cell permeable peptide 10 uM in cell culture solution, 2 days or more; immunofluorescence staining (FIG. 21)

Q: Which “phosphorylation of OCT4” value [1] does the source give for “Helix 1-3: Amino acid sequence NRVRGNLENLFLQCPKPTLQQISHIAQQLGLEKDVVRVWFCNRRQKGKRS; OCT4 function-inhibiting peptide, expressed from pCAG-F-puro vector (Helix 1-3)” here?
A: the highest

Q: Which “binding power to PP1 compared with Helix-3” value ([2]; FITC-bound peptides, fluorescence polarization (FIG. 20)) does the source give for “Helix 3-3: Amino acid sequence VVRVWFCNRRQK; consisting of 12 amino acids (Helix 3-3)” here?
A: the same binding power as that of Helix-3

Q: With “Helix 1: Amino acid sequence NRVRGNLENL; OCT4 function-inhibiting peptide (also: FITC label (site not given here))” as the compound, how does the “phosphorylation of OCT4” value [1] read?
A: the highest

Q: `C=C1[C@@H](O)[C@@H]2O[C@]3(CC[C@H](/C=C/[C@@H](C)[C@@H]4CC(C)=C[C@@]5(O[C@H](C[C@@](C)(O)C(=O)O)CC[C@H]5O)O4)O3)CC[C@H]2O[C@@H]1[C@@H](O)C[C@H](C)[C@H]1O[C@@]2(CCCCO2)CC[C@H]1C` [okadaic acid] was tested. Which “phosphorylation of OCT4” value [3] did it give?
A: the phosphorylation of OCT4 was increased

Q: “11R-GGG-VVRVWFCNRRQK: Cell permeable peptide to which the sequence of Helix-3-3 was linked: RRRRRRRRRRRGGGVVRVWFCNRRQK (Cell penetrating peptide CPP H3-3)” was tested. Which “phosphorylation of OCT4” value [4] did it give?
A: increase in phosphorylation of OCT4

Q: With “Helix 3: Amino acid sequence KDVVRVWFCNRRQKGKRSS; OCT4 function-inhibiting peptide consisting of 19 amino acids (Helix 3)” as the compound, how does the “binding to PP1 (fluorescence polarization values)” value ([2]; FITC-bound peptide 20 nM, purified PP1 protein added, 30 minutes (FIG. 19)) read?
A: bound
